The supplement of paper PMC10307832

Assays:
Test in all cases: relative viability (nuclei count vs DMSO), 5 days (fraction); higher = more cells survive
XMD13-2 + Bortezomib = compound: C1CC1C(=O)NC2=NNC3=C2C=CC(=C3)C4=CC(=CC=C4)C(=O)NC5CC5 [XMD13-2] + CC(C)C[C@H](NC(=O)[C@H](Cc1ccccc1)NC(=O)c1cnccn1)B(O)O [Bortezomib] (partner 0.002 µM)
How it was run: (§1)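 Lung cancer cell lines in 1536-well plates were dosed by pin tool the day after seeding, either with one drug alone or with a fixed anchor-drug dose plus five library-drug doses (not always all listed) in √10 steps. After 5 days, cells were fixed and their nuclei stained in one step (final 0.05% Triton X-100, 1% formaldehyde, 1 ug/ml Hoechst), then counted on 4× images. Relative viability is the nuclei count in treated wells divided by that in vehicle wells. Values are medians of duplicate plates.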

XMD13-2 + Pemetrexed = compound: C1CC1C(=O)NC2=NNC3=C2C=CC(=C3)C4=CC(=CC=C4)C(=O)NC5CC5 [XMD13-2] + Nc1nc2[nH]cc(CCc3ccc(C(=O)N[C@@H](CCC(=O)O)C(=O)O)cc3)c2c(=O)[nH]1 [Pemetrexed] (partner 0.2 µM)
How it was run: as §1

ALW-II-49-7 + Alpelisib = compound: Cc1ccc(C(=O)Nc2cccc(C(F)(F)F)c2)cc1Nc1cncc(C(N)=O)c1 [ALW-II-49-7] + Cc1nc(NC(=O)N2CCC[C@H]2C(N)=O)sc1-c1ccnc(C(C)(C)C(F)(F)F)c1 [Alpelisib] (partner 2 µM)
How it was run: as §1

Dasatinib + Luminespib = compound: Cc1nc(Nc2ncc(C(=O)Nc3c(C)cccc3Cl)s2)cc(N2CCN(CCO)CC2)n1 [Dasatinib] + CCNC(=O)c1noc(-c2cc(C(C)C)c(O)cc2O)c1-c1ccc(CN2CCOCC2)cc1 [Luminespib] (partner 0.01 µM)
How it was run: as §1

| Cell Line | relative viability (XMD13-2 + Bortezomib; first compound 0.05 µM) | relative viability (XMD13-2 + Bortezomib; first compound 0.1581 µM) | relative viability (XMD13-2 + Bortezomib; first compound 0.5 µM) | relative viability (XMD13-2 + Bortezomib; first compound 1.581 µM) | relative viability (XMD13-2 + Bortezomib; first compound 5 µM) | relative viability (XMD13-2 + Pemetrexed; first compound 0.05 µM) | relative viability (XMD13-2 + Pemetrexed; first compound 0.1581 µM) | relative viability (XMD13-2 + Pemetrexed; first compound 0.5 µM) | relative viability (XMD13-2 + Pemetrexed; first compound 1.581 µM) | relative viability (XMD13-2 + Pemetrexed; first compound 5 µM) | relative viability (ALW-II-49-7 + Alpelisib; first compound 0.08 µM) | relative viability (ALW-II-49-7 + Alpelisib; first compound 0.253 µM) | relative viability (ALW-II-49-7 + Alpelisib; first compound 0.8 µM) | relative viability (ALW-II-49-7 + Alpelisib; first compound 2.53 µM) | relative viability (ALW-II-49-7 + Alpelisib; first compound 8 µM) | relative viability (Dasatinib + Luminespib; first compound 0.005 µM) | relative viability (Dasatinib + Luminespib; first compound 0.01581 µM) | relative viability (Dasatinib + Luminespib; first compound 0.05 µM) | relative viability (Dasatinib + Luminespib; first compound 0.1581 µM) | relative viability (Dasatinib + Luminespib; first compound 0.5 µM) |
| --- | --- | --- | --- | --- | --- | --- | --- | --- | --- | --- | --- | --- | --- | --- | --- | --- | --- | --- | --- | --- |
| 201T | 1.12 | 1.12 | 1.16 | 1.15 | 1.18 | 0.372 | 0.309 | 0.384 | 0.329 | 0.364 | 1 | 1.02 | 1.02 | 0.992 | 1.02 | 0.998 | 0.81 | 0.836 | 0.548 | 0.378 |
| LC-2-ad | 1.25 | 1.11 | 1.1 | 1.01 | 1.08 | 0.285 | 0.26 | 0.282 | 0.303 | 0.256 | 0.911 | 0.884 | 0.847 | 0.892 | 0.864 | 1.1 | 1.11 | 0.86 | 0.774 | 0.376 |
| NCI-H596 | 1.1 | 0.881 | 1.34 | 1.11 | 1.2 | 0.478 | 0.454 | 0.518 | 0.456 | 0.492 | 0.443 | 0.513 | 0.497 | 0.469 | 0.438 | 0.809 | 0.691 | 0.776 | 0.552 | 0.478 |
| NCI-H1437 | 0.667 | 0.551 | 0.658 | 0.527 | 0.597 | 0.336 | 0.326 | 0.343 | 0.323 | 0.329 | 0.949 | 1.01 | – | 0.901 | 0.959 | 1.11 | 1.12 | 1.16 | 1.08 | 0.665 |
| PC-3 [JPC-3] | 0.807 | 0.778 | 0.884 | 0.871 | 0.867 | 1.23 | 1.04 | 1.14 | – | 1.12 | 1.02 | 0.989 | 0.987 | 1.09 | 1.02 | 0.741 | 0.646 | 0.76 | 0.576 | 0.389 |
| SW 1573 | 0.974 | 1.03 | 1.03 | 0.977 | 0.947 | 0.831 | 0.847 | 0.788 | 0.79 | 0.814 | 0.911 | 0.684 | 0.914 | 0.947 | 0.665 | 0.211 | 0.216 | 0.272 | 0.139 | 0.154 |
| NCI-H2228 | 1.48 | 1.16 | 1 | 1 | 0.872 | 0.354 | 0.315 | 0.339 | 0.31 | 0.27 | 0.647 | 0.649 | 0.866 | 0.75 | 0.769 | 0.158 | 0.095 | 0.145 | 0.0907 | 0.101 |
| NCI-H1792 | 1.16 | 0.996 | 1 | 0.927 | 1.15 | 1.16 | 0.694 | 0.922 | 0.75 | 1.14 | 0.512 | 0.459 | 0.586 | 0.504 | 0.473 | 0.467 | 0.306 | 0.244 | 0.249 | 0.2 |
| COR-L 105 | 1.06 | 0.953 | 0.737 | 0.905 | 0.75 | 1.01 | 1.26 | 1.04 | 0.98 | 1.26 | 1.14 | 1.03 | 0.894 | 0.93 | 0.943 | 0.67 | 0.588 | 0.637 | 0.571 | 0.22 |
| LU99A | 1.2 | 1.06 | 1.12 | 0.992 | 0.718 | 0.208 | 0.203 | 0.189 | 0.213 | 0.187 | 0.491 | 0.527 | 0.481 | 0.482 | 0.532 | 0.229 | – | 0.247 | 0.143 | 0.166 |
| H3255 | 1 | 0.75 | 0.817 | 0.575 | 0.764 | 0.618 | 0.546 | 0.579 | 0.611 | 0.625 | 0.828 | 0.743 | 0.73 | 0.403 | 0.511 | 0.919 | 0.901 | 0.793 | 0.919 | 0.371 |
| NCI-H1734 | 1.35 | 0.954 | 0.887 | 0.729 | 0.768 | 0.41 | 0.422 | 0.398 | 0.412 | 0.386 | 0.645 | 0.774 | 0.657 | 0.694 | 0.577 | 0.185 | 0.191 | 0.159 | 0.167 | 0.156 |
| NCI-H650 | 0.932 | 0.757 | 0.983 | 0.683 | 0.993 | 0.938 | 0.995 | 1.04 | 0.772 | 0.958 | 1.14 | 1.08 | 1.13 | 0.353 | 0.669 | 0.771 | 0.777 | 0.852 | 0.401 | 0.213 |
| NCI-H1915 | 1.06 | 1.01 | 1.01 | 0.979 | 1.01 | 0.504 | 0.509 | 0.544 | 0.504 | 0.513 | 1.1 | 1.13 | 1.08 | 0.978 | 0.731 | 0.818 | 0.601 | 0.673 | 0.208 | 0.149 |
| NCI-H2009 | 1.05 | 1.12 | 1.4 | 1.02 | 1.01 | 1.01 | 1.1 | 1.01 | 1.01 | 1.07 | 1.12 | 1.09 | 1.12 | 0.957 | 0.825 | 1.05 | 1.02 | 1.1 | 0.605 | 0.168 |
| NCI-H1651 | 1.02 | 0.914 | 0.946 | 0.92 | 0.965 | 0.607 | 0.56 | 0.577 | 0.647 | 0.775 | 1.01 | 0.832 | 0.746 | 0.919 | 0.835 | 0.742 | 0.723 | 0.868 | 0.677 | 0.63 |
